Results on five molecules are retold here after US12036195B2, “Co-crystals of NURR1-lbd in complex with a cyclopentenone prostaglandin and modulators of NURR1” (Nanyang Technological University, priority 2016, dated 2024).

Test [1] has as its target T1, Nurr1 (Homo sapiens, UniProt P43354). To be noted: high throughput screening of >340,000 compounds; cited from earlier work.
The target of test [2] is T1, Nurr1. To be noted: binding with Nurr1-LBD at its non-canonical ligand-binding site; cited from earlier work.
Test [3] addresses T2, Nurr1-LBD (Homo sapiens, UniProt P43354).
T2 construct: The human Nurr1-LBD construct coding for residues 328-598 (hNurr1-LBD) was cloned into pETSUMO expression vector; SUMO tag (pETSUMO vector, purified on Ni2+-NTA) (cleaved yes); made in house; host or cells: E. coli BL21 (DE3)
As to the kind of experiment: 2D 1H-15N HSQC NMR chemical shift perturbation on Nurr1-LBD. The class given is binding. The settings on record: 15N-labeled Nurr1-LBD, 1:10 molar ratio protein:ligand; residues in helix 11 and 12 perturbed. Here is the method: 0.2 mM uniformly ^15-N labeled Nurr1-LBD protein was prepared in 20 mM sodium phosphate buffer containing 50 mM NaCl, 0.01% NaN3 (pH 7.5) in 90% H2O/10% D2O. The interaction between Nurr1-LBD and PGA1/PGA2 (in DMSO vehicle) was examined using two dimensional HSQC comparing free protein sample with 1:10 molar ratio of Nurr1-LBD:PGA1/PGA2. The backbone resonance and sequence specific resonance assignments were previously assigned for Nurr1-LBD as reported (Kim, et. al. Proc Nat Acad Sci 112, 8756-8761 (2015)). The binding sites of PGA1/PGA2 were mapped on the crystal structure of Nurr1-LBD (PDB code: 1OVL) after determining the chemical shift perturbations following the addition of PGA1/PGA2 against the spectrum of the free protein. Bruker Avance II 700 MHz spectrometer fitted with a 5 mm triple resonance, z-axis-gradient cryoprobe at 298K was used for all NMR experiments. All spectra were processed directly to SPARKY format in UNIX and analyzed using the SPARKY 3.114 program (Goddard and Kneller, SPARKY In, 3.114 Edition: Univ of Calif (2002)).
Prostaglandins are a family of biologically potent lipids from membrane phospholipids; comprised of a C20-unsaturated fatty acid containing a cyclopentenone ring. […]

Test [4] addresses T2, Nurr1-LBD. As to the kind of experiment: Top-down mass spectrometry of covalent coupling to Nurr1-LBD. The format is binding. To be noted: overnight incubation at 1:1.5 molar ratio. As to the method:
Nurr1-LBD at ˜300 μM prepared in 0.1% FA in water was analyzed using a Dionex UltiMate 3000 UHPLC coupled to a linear quadrupole ion trap-Fourier transform Ultra apparatus (LTQ-FT Ultra, Thermo Scientific Inc.). Protein solution (5 μL) was injected directly into the detector carried by 0.1% FA in water at 500 μL/min. On-line ionization was performed using a Michrom CaptiveSpray ion source (Bruker-Michrom Inc., Auburn, USA) at an electrospray potential of 1.5 kV and capillary temperature of 200° C. Data acquisition was conducted in profile and positive mode (600-1600 m/z range). Mass spectrometry (MS) data was acquired for 60 min in the FT-ICR cell at a resolution of 100,000 (at 400 m/z) and maximum injection time of 500 msec using Xcalibur version 2.0 SR2 (Thermo Scientific Inc., Bremen, Germany). The automatic gain control target for FT-ICR was set to 5.0e+05. For each scan 100 microscans were averaged. […]
To exclude the possibility that the covalent coupling of PGA1/PGA2 to human Nurr1-LBD domain seen in the crystal structures was an artifact of crystallization or exposure to high-intensity X-rays, Nurr1-LBD at ˜ 300 μM prepared in 0.1% FA in water was analyzed using a Dionex UltiMate 3000 UHPLC coupled to a linear quadrupole ion trap-Fourier transform Ultra apparatus (LTQ-FT Ultra, Thermo Scientific Inc.). […]

The test system of test [5] is HL60 cells. The settings on record: direct interaction with mitochondria; cited from earlier work.
Test [6] deals with LRRK2 G2019S Drosophila. As to the kind of experiment: Climbing assay and survival in LRRK2 G2019S Drosophila. The class given is in vivo, Drosophila melanogaster. Here is the method: FIG. 4. Mitigation of locomotor deficits and mortality in LRRK2 G2019S Drosophila by CyPGs. Drosophila melanogaster expressing LRRK2 G2019S mutation driven by ddc-Gal4 result in late-onset PD in these flies. Treatment with 50 μM PGA2 was able to improve their climbing ability from 9.7% to 36.4% when compared to age-matched mutant flies (0.5% EtOH drug vehicle). Survival rate was determined by counting the number of flies that survived every 2-3 days for 55 days post-eclosion. Flies were treated with cornmeal-agar medium containing 50 μM PGA2 for 25 days at day 30 post-eclosion and climbing assay was carried out on day 55. The number of flies that climbed beyond a median line in a vertical column (length 25 cm; diameter 1.5 cm) were counted after one minute for an average of six times. Results represent mean±SEM of climbing scores from three independent experiments. Student's t-test (unpaired) was conducted to determine statistical significance between G2019S (vehicle treated) and PGA2-treated mutant flies: *p<0.05.
Flies expressing Leucine-rich repeat kinase 2 (LRRK2) with G2019S mutation driven by dopa decarboxylase (ddc)-Gal4 leads to late-onset PD in these flies (Liu, et al. Proc Natl Acad Sci USA 105, 2693-2698, doi:10.1073/pnas.0708452105 (2008)). […]

T2 sequence (P43354 328-598): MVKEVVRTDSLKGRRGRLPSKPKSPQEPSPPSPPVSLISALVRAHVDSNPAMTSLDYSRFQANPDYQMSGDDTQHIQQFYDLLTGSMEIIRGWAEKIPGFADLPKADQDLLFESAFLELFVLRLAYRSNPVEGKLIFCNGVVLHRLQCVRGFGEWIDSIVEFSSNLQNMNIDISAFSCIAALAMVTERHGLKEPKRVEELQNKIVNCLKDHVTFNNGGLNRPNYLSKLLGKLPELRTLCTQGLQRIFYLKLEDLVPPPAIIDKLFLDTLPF
T1 sequence (P43354 whole entry, species assumed, the tested form may be a part): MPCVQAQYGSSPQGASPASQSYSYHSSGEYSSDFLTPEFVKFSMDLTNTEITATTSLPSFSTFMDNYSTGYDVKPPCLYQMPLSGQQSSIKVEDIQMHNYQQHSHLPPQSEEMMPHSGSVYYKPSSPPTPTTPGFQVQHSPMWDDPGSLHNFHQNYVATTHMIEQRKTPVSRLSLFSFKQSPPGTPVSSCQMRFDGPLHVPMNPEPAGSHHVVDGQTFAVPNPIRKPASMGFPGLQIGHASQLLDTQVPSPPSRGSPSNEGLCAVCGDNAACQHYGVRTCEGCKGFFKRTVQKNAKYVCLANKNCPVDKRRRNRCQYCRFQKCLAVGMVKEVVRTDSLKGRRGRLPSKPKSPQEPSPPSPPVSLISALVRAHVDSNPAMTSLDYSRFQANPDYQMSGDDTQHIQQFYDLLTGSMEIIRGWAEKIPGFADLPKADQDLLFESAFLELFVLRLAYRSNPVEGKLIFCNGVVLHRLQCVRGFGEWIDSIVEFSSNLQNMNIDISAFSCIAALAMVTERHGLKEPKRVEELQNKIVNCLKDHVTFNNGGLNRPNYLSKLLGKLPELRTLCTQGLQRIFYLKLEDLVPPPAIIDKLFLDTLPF

With `Sc1ncnc2nc[nH]c12` [6-mercaptopurine], the “activation of Nurr1” value in test [1] is “activate Nurr1 through a region in the amino terminus lacking a LBD”.

Regarding `CCN(CC)Cc1cc(Nc2ccnc3cc(Cl)ccc23)ccc1O` [amodiaquine], the “transcriptional function of Nurr1” value in test [2] is reported as “enhance the transcriptional function of Nurr1”.

Consider `CCCCCC(O)/C=C/[C@H]1C=CC(=O)[C@@H]1CCCCCCC(=O)O` (stereo partly shown) [PGA1, prostaglandin A1], for which, in test [3], the “interaction with Nurr1-LBD by chemical shift perturbations” value is recorded as “direct physical interaction”. For the same molecule, the “fraction of Nurr1 that binds the ligand covalently” value in test [4] is listed as “about 50%”.

On to `CCN(CC)CCCC(C)Nc1ccnc2cc(Cl)ccc12` (stereo not shown) [chloroquine], for which the “transcriptional function of Nurr1” value in test [2] is “enhance the transcriptional function of Nurr1”.

On to `CCCCCC(O)/C=C/[C@H]1C=CC(=O)[C@@H]1C/C=C\CCCC(=O)O` (stereo partly shown) [PGA2, prostaglandin A2], for which the “apoptosis in HL60 cells” value in test [5] was “induce intrinsic apoptosis in HL60 cells”. Moreover, in test [3], the “interaction with Nurr1-LBD by chemical shift perturbations” value is “direct physical interaction”. The “fraction of Nurr1 that binds the ligand covalently” value in test [4] was “about 50%”. This molecule also yielded a climbing ability in test [6] (50 μM in medium for 25 days from day 30 post-eclosion, assay on day 55, vehicle-treated mutant flies 9.7%) of 36.4%. In addition, the overall survival rate result in test [6] (PGA2 treated flies compared to vehicle treated mutant flies, 55 days post-eclosion) is listed as “improvement to their overall survival rate”.
